This passage reports GI50 and TGI results from PubChem BioAssay (NCI).

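Method: 48-hour compound exposure of cells in 96-well plates, five concentrations, linear interpolation of endpoints. GI50 = concentration required for 50% inhibition of growth. TGI is the concentration that stops growth completely.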 Where only a bound is given, the exact number is not on record here.

Test systems include SNB-19 CNS; M14 melanoma; COLO 205 colon; HCT-15 colon; HOP-92 NSCLC; ACHN renal; NCI-H23 lung.
Holding throughout (assay): NCI tumour cell line growth inhibition, 48 h

Consider `c1ccc2c(c1)Nc1ccncc1S2`, for which the GI50 was 25.7 µM with SNB-19 CNS; 32.4 µM in the test on M14 melanoma; 11.5 µM in the test on COLO 205 colon; 28 µM in the test on HCT-15 colon; 8.07 µM in the test on HOP-92 NSCLC; 17.9 µM in the test with ACHN renal. Moreover, the GI50 with NCI-H23 lung was 20.7 µM. Moreover, the TGI in the test on SNB-19 CNS is > 100 µM; in the test with M14 melanoma it was > 100 µM; in the test with COLO 205 colon, 37.1 µM; in the test on HCT-15 colon it was > 100 µM; in the test with HOP-92 NSCLC, 71.6 µM; in the test with ACHN renal it was > 100 µM. Further, the TGI in the test with NCI-H23 lung was > 100 µM.

For `COC1C(O)C(CO)OC(OC2C(O)COC(OC3C(C)OC(OC4C(O[C@H]5CC[C@@]6(C)C(CC=C7[C@H]6CCC68C(=O)O[C@@](C)(CCCC(C)C)[C@H]6[C@@H](OC(C)=O)C[C@@]78C)C5(C)C)OCC(OS(=O)(=O)O)C4O)C(OC4OCC(O)C(O)C4O)C3O)C2O)C1O` (stereo partly drawn), the GI50 in the test with SNB-19 CNS is 0.149 µM; in the test on M14 melanoma, 0.258 µM; in the test on COLO 205 colon, 0.0738 µM; in the test on HCT-15 colon, 0.177 µM; in the test on HOP-92 NSCLC it was 0.0934 µM; in the test on ACHN renal, 0.149 µM. Also, the GI50 in the test on NCI-H23 lung was 0.113 µM. Further, the TGI came out at 0.374 µM with SNB-19 CNS; 0.894 µM in the test with M14 melanoma; 0.286 µM with COLO 205 colon; 0.454 µM in the test on HCT-15 colon; 0.842 µM in the test on HOP-92 NSCLC; 0.298 µM in the test with ACHN renal. The same compound returned a TGI with NCI-H23 lung of 0.287 µM.

With `CC1(C)CC(=O)C2=C(C1)OC(N)=C(c1nc(-c3ccccc3)cs1)C2c1ccc(Br)cc1` (stereo not drawn), the GI50 in the test on SNB-19 CNS was > 150 µg/mL; in the test with M14 melanoma it was 103 µg/mL; in the test with COLO 205 colon, 41.8 µg/mL; in the test on HCT-15 colon, 36.1 µg/mL; in the test with HOP-92 NSCLC, 33.2 µg/mL; with ACHN renal, 61.5 µg/mL. Moreover, the GI50 in the test with NCI-H23 lung was 53.7 µg/mL. Further, the TGI with SNB-19 CNS was > 150 µg/mL; in the test with M14 melanoma it was > 150 µg/mL; in the test on COLO 205 colon, > 150 µg/mL; with HCT-15 colon it was > 150 µg/mL; in the test on HOP-92 NSCLC, 126 µg/mL; with ACHN renal, > 150 µg/mL. For the same compound, the TGI in the test on NCI-H23 lung was > 150 µg/mL.

Consider `N#CCCN1C/C(=C/c2ccc(Cl)cc2)C(=O)/C(=C/c2ccc(Cl)cc2)C1`, for which the GI50 with SNB-19 CNS was 1.31 µM; in the test with M14 melanoma, 1.8 µM; in the test on COLO 205 colon, 1.25 µM; with HCT-15 colon it was 0.412 µM; in the test on HOP-92 NSCLC, 1.81 µM; in the test on ACHN renal it was 1.63 µM. The GI50 in the test on NCI-H23 lung is 2.18 µM. Further, the TGI in the test with SNB-19 CNS worked out at 2.72 µM; with M14 melanoma, 3.99 µM; in the test with COLO 205 colon, 2.64 µM; with HCT-15 colon, 1.78 µM; in the test with HOP-92 NSCLC it was 5 µM; in the test on ACHN renal it was 3.28 µM. The compound also yielded a TGI with NCI-H23 lung of 5.61 µM.

With `CCCCCCNC(=O)Oc1ccc(/C(=C(\C)c2ccc(Cl)cc2)c2ccc(OCCN3CCCCC3)cc2)cc1`, the GI50 in the test with SNB-19 CNS was 6.37 µM; with M14 melanoma, 0.785 µM; in the test with COLO 205 colon, 1.44 µM; with HCT-15 colon, 1.07 µM; in the test with HOP-92 NSCLC it was 3.55 µM; with ACHN renal, 4.87 µM. Further, in the test on NCI-H23 lung, the GI50 is 3.89 µM. For the same compound, the TGI with SNB-19 CNS is 28.9 µM; in the test with M14 melanoma, 3.65 µM; in the test on COLO 205 colon, 6.44 µM; in the test on HCT-15 colon it was 4.71 µM; in the test with HOP-92 NSCLC it was 7.88 µM; with ACHN renal, 9.55 µM. This compound came in with a TGI with NCI-H23 lung of 9.61 µM.

On to `O=C(O)Cc1cccnc1`, for which the TGI in the test on SNB-19 CNS, in the test on M14 melanoma, with COLO 205 colon, with HCT-15 colon, in the test on HOP-92 NSCLC and in the test with ACHN renal was > 100 µM each time. For the same compound, the TGI in the test on NCI-H23 lung is > 100 µM.

Take `Cc1cc(N(CCCNc2ccnc3cc(Cl)ccc23)Cc2ccco2)nc(N2CCN(C)CC2)n1`: the GI50 in the test with SNB-19 CNS was 5 µM; with M14 melanoma, 1.85 µM; with COLO 205 colon it was 1.89 µM; in the test with HCT-15 colon it was 2.07 µM; in the test on HOP-92 NSCLC, 1.92 µM; with ACHN renal, 2.46 µM. For the same compound, the GI50 in the test on NCI-H23 lung is 5.52 µM. In addition, the TGI in the test on SNB-19 CNS came to 16.9 µM; in the test on M14 melanoma, 3.44 µM; in the test with COLO 205 colon, 3.94 µM; in the test on HCT-15 colon, 10.5 µM; with HOP-92 NSCLC, 4.99 µM; in the test on ACHN renal, 6.51 µM. The compound further had a TGI with NCI-H23 lung of 22.1 µM.

On to `Nc1nc(Nc2ccccc2SSc2ccccc2Nc2nc(N)nc(C(Cl)(Cl)Cl)n2)nc(C(Cl)(Cl)Cl)n1`, for which the GI50 with SNB-19 CNS was 4.41 µM; in the test on M14 melanoma, 9.13 µM; with COLO 205 colon, 17.6 µM; with HCT-15 colon, 3.89 µM; in the test with HOP-92 NSCLC, 4.33 µM; in the test with ACHN renal, 1.7 µM. For the same compound, the GI50 with NCI-H23 lung was 3.66 µM. Further, the TGI in the test with SNB-19 CNS came to 17.8 µM; with M14 melanoma, 22.9 µM; in the test with COLO 205 colon, 34.9 µM; in the test with HCT-15 colon, 15 µM; with HOP-92 NSCLC it was 21.4 µM; in the test with ACHN renal, 3.2 µM. In the test on NCI-H23 lung, this compound registered a TGI of 13.9 µM.

For the compound `C#CCNC(=O)[C@H](CC)[C@H]1CC[C@H](C)[C@H]([C@@H](C)[C@H](O)[C@H](C)C(=O)[C@H](CC)C2O[C@]3(C=CC(=O)[C@]4(CC[C@@](C)([C@H]5CC[C@](O)(CC)[C@H](C)O5)O4)O3)[C@H](C)C[C@@H]2C)O1` (stereo partly drawn), the GI50 is 2.36 µM in the test with SNB-19 CNS; 1.86 µM with M14 melanoma; 1.84 µM in the test on COLO 205 colon; 2.61 µM in the test with HCT-15 colon; 1.37 µM with HOP-92 NSCLC; 2.94 µM in the test with ACHN renal. Besides, in the test with NCI-H23 lung, the GI50 is 2.83 µM. In addition, the TGI in the test with SNB-19 CNS amounted to 7.96 µM; in the test on M14 melanoma, 4.57 µM; with COLO 205 colon, 3.52 µM; with HCT-15 colon, 7.81 µM; with HOP-92 NSCLC, 6.62 µM; with ACHN renal it was 14.6 µM. In addition, the TGI in the test on NCI-H23 lung was > 100 µM.

Regarding `NS(=O)(=O)c1ccc(-c2cc3ccncc3cc2OCc2ccccc2)cc1`, the GI50 in the test with SNB-19 CNS was > 25 µM; in the test on M14 melanoma, > 25 µM; with COLO 205 colon, > 21.2 µM; with HCT-15 colon, 13.2 µM; in the test on HOP-92 NSCLC, 4.94 µM; in the test with ACHN renal it was > 19 µM. Besides, the GI50 in the test with NCI-H23 lung was > 25 µM. Besides, the TGI in the test on SNB-19 CNS, in the test on M14 melanoma, in the test on COLO 205 colon, in the test with HCT-15 colon, in the test with HOP-92 NSCLC and in the test on ACHN renal was > 25 µM each time. Further, in the test on NCI-H23 lung, the TGI was > 25 µM.
